Measurements as given in paper PMC12668310, “High‐Throughput Synthesis and Screening of a Cyanimide Library Identifies Selective Inhibitors of ISG15‐Specific Protease mUSP18” (Angewandte Chemie (International Ed. in English), 2025).
“And” between values parts separate entries of the source, which are not always exact repeats. Identical values can stand only once.

Each compound was assayed against T1, OTUD1 (Homo sapiens, UniProt Q5VV17) (assay: High-throughput screening, Ub-RhoMP, single dose 1.25 µM). Details: crude in-plate synthesized compound, 1.25 µM assuming full conversion.
T1 sequence (Q5VV17 287-481): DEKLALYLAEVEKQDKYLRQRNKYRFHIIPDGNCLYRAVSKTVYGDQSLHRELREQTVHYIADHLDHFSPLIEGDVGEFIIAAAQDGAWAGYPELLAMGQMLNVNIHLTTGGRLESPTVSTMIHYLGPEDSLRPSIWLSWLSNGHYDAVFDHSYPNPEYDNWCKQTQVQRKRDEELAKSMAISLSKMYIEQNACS
Type: biochemical
Description: (§1) Since the in‐plate synthesis was conducted in 1536‐well Echo plates, the compounds could readily be transferred from these plates into 1536‐well assay plates using acoustic liquid dispensing (Figure 2a) and subjected to HTS. We screened the whole 7536 compound library against a panel of twelve enzymes, including three DUBs from the UCH family, two DUBs from the OTU family, five DUBs from the USP family, plus ISG15 protease USP18, and SUMO protease SENP1. Each compound was tested at a single dose of 1.25 µM, assuming full conversion (10 mM in DMSO of the formed products) during the in‐plate synthesis, using the fluorogenic assay described above. […] The compounds are sorted by the amine building blocks (BB1‐16), and within each BB, sorted by carboxylic acid (CA1‐471), thereby providing a comprehensive and systematic overview of the overall inhibition by each BB and CA combination. Some interesting patterns can be obtained from this map. […] Indeed, BB10 is the privileged scaffold for UCHL1 as it originates from UCHL1 inhibitor 5 (Figure 1). […] On the other hand, OTUD1 and USP32 show a much higher hit rate, and this is even more pronounced for USP30 and ISG15 protease mUSP18, each showing many active compounds distributed over several BB's.
(§2) Purified recombinant enzymes used in this study
(§3) High-throughput screening
(§4) The screens were performed at room temperature in “flat bottom, non-treated, black […]
(§5) µM. The compounds (10 nL each) were transferred from the 1 mM daughter plates to the […]
(§6) Four wells containing DMSO
(§7) (10 nL) and four wells containing NEM (10 mM final concentration) were used in each plate […]
(§8) solution (1.33x final concentration) was added to each well, followed by incubation for 30 min.
(§9) Next, 2 µL of a substrate solution (4x final concentration) was added to each well (Ub-RhoMP[2]
(§10) After 1h or 2h incubation the
(§11) The percentage inhibition was calculated for each well using the […]
(§12) Where FIx is the fluorescence intensity of each well, FIpos is the average fluorescence intensity of the positive (NEM) control wells, and FIneg is the average fluorescence intensity of the negative (DMSO) control wells.

Compound	%inhibition OTUD1
N#CN1CC[C@@H](NC(=O)c2nc(N3CCCC3)ncc2Cl)C1 [BB01CA90]	7.7%
N#CN1CC[C@@H](NC(=O)C(Cc2c[nH]cn2)NS(=O)(=O)c2ccc(Cl)cc2)C1 (some centres unmarked) [BB01CA91]	-3.9%
N#CN1CC[C@@H](NC(=O)Cc2csc(-c3cnccn3)n2)C1 [BB01CA92]	-13.5%
N#CN1CC[C@@H](NC(=O)CCN(Cc2ccccc2)S(=O)(=O)c2c(Cl)cccc2Cl)C1 [BB01CA93]	1.5%
N#CN1CC[C@@H](NC(=O)c2ncoc2-c2cccs2)C1 [BB01CA94]	-11.1%

Each compound was assayed against T2, USP30 (Homo sapiens, UniProt Q70CQ3) in the same assay as above. Details: crude in-plate synthesized compound, 1.25 µM assuming full conversion.
T2 sequence (Q70CQ3 57-517): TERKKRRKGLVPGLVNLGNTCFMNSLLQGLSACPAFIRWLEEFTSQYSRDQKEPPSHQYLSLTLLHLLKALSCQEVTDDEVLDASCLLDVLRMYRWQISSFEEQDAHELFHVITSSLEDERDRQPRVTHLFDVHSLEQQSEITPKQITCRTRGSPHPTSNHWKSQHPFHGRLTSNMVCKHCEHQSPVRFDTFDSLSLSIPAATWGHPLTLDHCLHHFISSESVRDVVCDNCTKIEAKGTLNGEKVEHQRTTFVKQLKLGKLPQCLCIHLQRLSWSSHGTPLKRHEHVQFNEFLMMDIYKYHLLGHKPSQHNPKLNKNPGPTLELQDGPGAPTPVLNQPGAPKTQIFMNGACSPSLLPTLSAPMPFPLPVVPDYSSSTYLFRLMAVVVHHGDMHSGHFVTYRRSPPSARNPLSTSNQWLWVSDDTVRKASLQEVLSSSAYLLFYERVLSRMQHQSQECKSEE
Type: biochemical
Set-up: USP30 CD (57-517); purchased Ubiquigent 64-0057-050
Description: as §1, §2, §3, §4, §5, §6, §7, §8, §9, §10, §11, §12

Compound	%inhibition USP30
N#CN1CC[C@@H](NC(=O)c2nc(N3CCCC3)ncc2Cl)C1 [BB01CA90]	54.5%
N#CN1CC[C@@H](NC(=O)C(Cc2c[nH]cn2)NS(=O)(=O)c2ccc(Cl)cc2)C1 (some centres unmarked) [BB01CA91]	36.0%
N#CN1CC[C@@H](NC(=O)Cc2csc(-c3cnccn3)n2)C1 [BB01CA92]	65.3%
N#CN1CC[C@@H](NC(=O)CCN(Cc2ccccc2)S(=O)(=O)c2c(Cl)cccc2Cl)C1 [BB01CA93]	101.1%
N#CN1CC[C@@H](NC(=O)c2ncoc2-c2cccs2)C1 [BB01CA94]	73.0%

Same assay, conditions: individual amine building block (plate NCN-5)

Compound	BB %inhibition USP30
N#CN1CC[C@@H](N)C1 [BB1]	5.9%
N#CN1CCC(N)CC1 [BB2]	4.8%
N#CN1CC[C@H](N)C1 [BB3]	3.7%
N#CN1CCC[C@@H](N)C1 [BB4]	5.1%
N#CN1CC(N)C1 [BB5]	-0.656%
N#CN1C[C@H]2C[C@@H](N)C[C@H]2C1 [BB6]	-0.126%
N#CN1C[C@H]2C[C@H](N)C[C@H]2C1 [BB7]	-2.3%
N#CN1CCC[C@H](N)C1 [BB8]	-2.4%
N#CN1CC[C@@H](NC(=O)c2ccc(CN)cc2)C1 [BB9]	~35% and 31.5%
N#CN1CC[C@H](C(=O)Nc2nc3c(s2)CNCC3)C1 [BB10]	-2.0%
N#CN1CC[C@H](CN)C1 [BB11]	-5.7%
N#CN1C[C@@H]2C[C@H]1CN2 [BB12]	-3.6%
N#CN1C[C@H](N)[C@@H](O)C1 [BB13]	7.5%
N#CN1CCC2(CCNC2)C1 (centres unmarked) [BB14]	3.9%
N#CN1C[C@@H](F)[C@@H](N)C1 [BB15]	-2.2%
N#CN1CCC(n2cc(N)cn2)CC1 [BB16]	0.9%

Each compound was assayed against USP16 (Homo sapiens, UniProt Q9Y5T5) in the same assay as above. Details: crude in-plate synthesized compound, 1.25 µM assuming full conversion.
Type: biochemical
Set-up: (22-823); His-tag (N); made in house
Description: as §1, §2, §3, §4, §5, §6, §7, §8, §9, §10, §11, §12

USP16, sequence (Q9Y5T5 22-823): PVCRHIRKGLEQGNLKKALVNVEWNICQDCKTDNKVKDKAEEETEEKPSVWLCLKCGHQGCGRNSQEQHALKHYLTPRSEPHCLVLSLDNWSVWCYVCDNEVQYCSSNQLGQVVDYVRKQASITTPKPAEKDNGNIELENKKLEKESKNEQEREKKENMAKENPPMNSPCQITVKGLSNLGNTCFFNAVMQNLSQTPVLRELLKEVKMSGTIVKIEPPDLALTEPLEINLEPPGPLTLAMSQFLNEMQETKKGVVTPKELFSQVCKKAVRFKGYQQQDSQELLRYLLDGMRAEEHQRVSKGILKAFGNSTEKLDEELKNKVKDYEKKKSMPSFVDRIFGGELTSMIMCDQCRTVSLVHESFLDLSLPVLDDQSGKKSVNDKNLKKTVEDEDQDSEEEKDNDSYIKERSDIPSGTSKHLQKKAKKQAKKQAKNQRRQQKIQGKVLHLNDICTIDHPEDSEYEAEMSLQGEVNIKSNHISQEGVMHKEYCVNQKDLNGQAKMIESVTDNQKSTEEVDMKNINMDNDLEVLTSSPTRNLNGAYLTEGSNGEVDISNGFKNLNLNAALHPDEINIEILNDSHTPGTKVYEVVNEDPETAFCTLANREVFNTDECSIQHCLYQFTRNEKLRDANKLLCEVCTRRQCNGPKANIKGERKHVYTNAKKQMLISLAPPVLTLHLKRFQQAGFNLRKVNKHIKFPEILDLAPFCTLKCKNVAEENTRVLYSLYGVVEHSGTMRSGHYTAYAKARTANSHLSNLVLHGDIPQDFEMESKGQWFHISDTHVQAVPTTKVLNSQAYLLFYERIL

Compound	%inhibition USP16
N#CN1CC[C@@H](NC(=O)c2nc(N3CCCC3)ncc2Cl)C1 [BB01CA90]	11.4%
N#CN1CC[C@@H](NC(=O)C(Cc2c[nH]cn2)NS(=O)(=O)c2ccc(Cl)cc2)C1 (some centres unmarked) [BB01CA91]	7.7%
N#CN1CC[C@@H](NC(=O)Cc2csc(-c3cnccn3)n2)C1 [BB01CA92]	15.0%
N#CN1CC[C@@H](NC(=O)CCN(Cc2ccccc2)S(=O)(=O)c2c(Cl)cccc2Cl)C1 [BB01CA93]	20.5%
N#CN1CC[C@@H](NC(=O)c2ncoc2-c2cccs2)C1 [BB01CA94]	11.4%

Same assay, conditions: individual amine building block (plate NCN-5)

Compound	BB %inhibition USP16
N#CN1CC[C@@H](N)C1 [BB1]	7.2%
N#CN1CCC(N)CC1 [BB2]	8.1%
N#CN1CC[C@H](N)C1 [BB3]	5.8%
N#CN1CCC[C@@H](N)C1 [BB4]	5.0%
N#CN1CC(N)C1 [BB5]	1.2%
N#CN1C[C@H]2C[C@@H](N)C[C@H]2C1 [BB6]	0.3%
N#CN1C[C@H]2C[C@H](N)C[C@H]2C1 [BB7]	-1.2%
N#CN1CCC[C@H](N)C1 [BB8]	-0.5%
N#CN1CC[C@@H](NC(=O)c2ccc(CN)cc2)C1 [BB9]	-1.3%
N#CN1CC[C@H](C(=O)Nc2nc3c(s2)CNCC3)C1 [BB10]	-2.4%
N#CN1CC[C@H](CN)C1 [BB11]	-4.8%
N#CN1C[C@@H]2C[C@H]1CN2 [BB12]	-5.0%
N#CN1C[C@H](N)[C@@H](O)C1 [BB13]	4.4%
N#CN1CCC2(CCNC2)C1 (centres unmarked) [BB14]	5.9%
N#CN1C[C@@H](F)[C@@H](N)C1 [BB15]	-1.1%
N#CN1CCC(n2cc(N)cn2)CC1 [BB16]	-0.846%
